Assay results taken from patent publication US8299048B2, “Hexahydrocyclopentyl[f]indazole sulfonamides and derivatives thereof as selective glucocorticoid receptor modulators” (Merck Sharp & Dohme Corp., priority 2008, dated 2012).

Key:
human GR [1] = target: T1, human GR (Homo sapiens, UniProt P04150); test: Trans-Activation Modulation of Glucocorticoid Receptor (GRAMMER), MMTV-LUC reporter, agonist mode; format: cell-based; set-up: endogenous in cells; settings: for Emax: A549, A549 cells, maximum activity, read-out: Transactivation A549 Cells GRAMMER Emax; for EC50: A549 cells, inflection point, read-out: Transactivation A549 Cells GRAMMER IP
T1 sequence (P04150 1-777): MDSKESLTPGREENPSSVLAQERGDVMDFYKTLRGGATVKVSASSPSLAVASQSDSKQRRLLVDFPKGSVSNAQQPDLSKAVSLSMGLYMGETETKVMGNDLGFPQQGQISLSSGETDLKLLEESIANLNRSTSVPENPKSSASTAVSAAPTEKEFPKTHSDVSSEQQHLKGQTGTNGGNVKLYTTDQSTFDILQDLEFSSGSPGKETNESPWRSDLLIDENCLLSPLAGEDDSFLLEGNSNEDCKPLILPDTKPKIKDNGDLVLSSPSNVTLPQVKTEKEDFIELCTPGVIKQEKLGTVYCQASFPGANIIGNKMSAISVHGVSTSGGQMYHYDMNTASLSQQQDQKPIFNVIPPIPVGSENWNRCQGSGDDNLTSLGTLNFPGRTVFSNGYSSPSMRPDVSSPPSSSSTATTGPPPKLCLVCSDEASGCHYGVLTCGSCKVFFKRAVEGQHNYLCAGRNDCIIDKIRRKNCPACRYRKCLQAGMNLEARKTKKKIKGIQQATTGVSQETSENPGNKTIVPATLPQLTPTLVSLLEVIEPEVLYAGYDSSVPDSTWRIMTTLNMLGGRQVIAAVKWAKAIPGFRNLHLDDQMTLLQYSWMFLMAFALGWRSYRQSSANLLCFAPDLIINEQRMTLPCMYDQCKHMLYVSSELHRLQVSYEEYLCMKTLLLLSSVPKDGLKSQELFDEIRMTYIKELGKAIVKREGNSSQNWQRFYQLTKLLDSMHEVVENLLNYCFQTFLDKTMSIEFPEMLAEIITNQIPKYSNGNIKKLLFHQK
How it was run: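 Readout is luciferase from a modified MMTV LTR promoter after 24 h compound exposure alongside 10 nM dexamethasone (100% activity reference), DMSO ≤1%.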

human GR [2] = target: T1, human GR; test: Transrepression Assay (GITAR), TNFα-β-lactamase reporter in U937 cells; format: cell-based; set-up: U937 cells contain an endogenous glucocorticoid receptor (GR); endogenous in cells; host or cells: U937 cells stably transfected with the TNF-alpha promoter/beta-lactamase reporter; settings: for GITAR > GRAMM % SEP: GITAR Emax minus GRAMMER Emax; for EC50: U937 cells, inflection point, read-out: Transrepression U937 Cells GITAR IP
How it was run: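 Repression normalised to 100 nM dexamethasone (100%), measured with CCF2-AM β-lactamase substrate after 70–90 min at room temperature. Stably transfected U937 cells were exposed to compound 30–45 min, then to PMA (5 ng/ml final) plus LPS (100 ng/ml final) overnight (~18 hr), 37° C.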

[3] = U-937, U937 cells, maximum activity, read-out: Transrepression U937 Cells GITAR Emax
[4] = U-937, activity repressed by 100 nM dexamethasone alone set as 100%, read-out: maximal activity in the transrepression (GITAR) assay

Structure (SMILES) | Emax (human GR [1]) | EC50 (human GR [1]) | GITAR > GRAMM % SEP (human GR [2]) | EC50 (human GR [2]) | Emax (human GR [2]; [3]) | Emax (human GR [2]; [4])
C[C@]12Cc3cnn(-c4ccc(F)cc4)c3C=C1CC[C@@H]2CN(CCc1ccccc1F)S(=O)(=O)Cc1ccccc1C(F)(F)F [Example 108, N-[2-(2-fluorophenyl)ethyl]-N-{[(4αR,5S)-1-(4-fluorophenyl)-4α-methyl-1,4,4α,5,6,7-hexahydrocyclopenta[f]indazol-5-yl]methyl}-1-[2-(trifluoromethyl)phenyl]methanesulfonamide] | 46% | 521 nM | 24.6% | 185 nM | 70.5% | > 5%
CC(C1CCC2=Cc3c(cnn3-c3ccc(F)cc3)C[C@@]21C)N(CC1CC1)S(=O)(=O)CC(F)(F)F (stereo partly drawn) [Example 109, N-(cyclopropylmethyl)-2,2,2-trifluoro-N-{1-[(4αR)-1-(4-fluorophenyl)-4α-methyl-1,4,4α,5,6,7-hexahydrocyclopenta[f]indazol-5-yl]ethyl}ethanesulfonamide] | 54.1% | 209 nM | 37.0% | 190 nM | 91.1% | > 5%
C[C@]12Cc3cnn(-c4ccc(F)cc4)c3C=C1CC[C@@H]2CN(CC1CCCO1)S(=O)(=O)Cc1cccc(C(F)(F)F)c1 (stereo partly drawn) [Example 110, N-{[(4αR,5S)-1-(4-fluorophenyl)-4α-methyl-1,4,4α,5,6,7-hexahydrocyclopenta[f]indazol-5-yl]methyl}-N-(tetrahydrofuran-2-ylmethyl)-1-[3-(trifluoromethyl)phenyl]methanesulfonamide] | 4.9% | 1100 nM | 21.3% | 626 nM | 26.2% | > 5%
C[C@]12Cc3cnn(-c4ccc(F)cc4)c3C=C1CC[C@@H]2CN(CCc1ccccc1F)S(=O)(=O)Cc1ccc(Cl)c(Cl)c1 [Example 111, 1-(3,4-dichlorophenyl)-N-[2-(2-fluorophenyl)ethyl]-N-{[(4αR,5S)-1-(4-fluorophenyl)-4α-methyl-1,4,4α,5,6,7-hexahydrocyclopenta[f]indazol-5-yl]methyl}methanesulfonamide] | 37.6% | 748 nM | 38.1% | 325 nM | 75.7% | > 5%
C[C@H](O)CN(C[C@H]1CCC2=Cc3c(cnn3-c3ccc(F)cc3)C[C@@]21C)S(=O)(=O)c1ccc(F)c(Cl)c1 [Example 112, 3-chloro-4-fluoro-N-{[(4αR,5S)-1-(4-fluorophenyl)-4α-methyl-1,4,4α,5,6,7-hexahydrocyclopenta[f]indazol-5-yl]methyl}-N-[(2S)-2-hydroxypropyl]benzenesulfonamide] | 33.4% | 423 nM | 32.3% | 337 nM | 65.7% | > 5%
C[C@H](O)CN(C[C@H]1CCC2=Cc3c(cnn3-c3ccc(F)cc3)C[C@@]21C)S(=O)(=O)CC(F)(F)F [Example 113] | 85.4% | 54.7 nM | 8.7% | 59 nM | 94% | > 5%
C[C@@H](CN(C[C@H]1CCC2=Cc3c(cnn3-c3ccc(F)cc3)C[C@@]21C)S(=O)(=O)CC(F)(F)F)OS(=O)(=O)CC(F)(F)F [Example 114, (1S)-2-{{[(4αR,5S)-1-(4-fluorophenyl)-4α-methyl-1,4,4α,5,6,7-hexahydrocyclopenta[f]indazol-5-yl]methyl}[(2,2,2-trifluoroethyl)sulfonyl]amino}-1-methylethyl 2,2,2-trifluoroethanesulfonate] | 80.3% | 161 nM | 18.2% | 148 nM | 98.5% | > 5%
C[C@@H](O)CN(C[C@H]1CCC2=Cc3c(cnn3-c3ccc(F)cc3)C[C@@]21C)S(=O)(=O)c1ccc(F)c(Cl)c1 [Example 115, 3-chloro-4-fluoro-N-{[(4αR,5S)-1-(4-fluorophenyl)-4α-methyl-1,4,4α,5,6,7-hexahydrocyclopenta[f]indazol-5-yl]methyl}-N-[(2R)-2-hydroxypropyl]benzenesulfonamide] | 26.1% | 786 nM | 31.2% | 643 nM | 57.4% | > 5%
C[C@]12Cc3cnn(-c4ccc(F)cc4)c3C=C1CC[C@@H]2CN(CCc1ccccc1O)S(=O)(=O)c1ccccc1F [Example 116, 2-fluoro-N-{[(4αR,5S)-1-(4-fluorophenyl)-4α-methyl-1,4,4α,5,6,7-hexahydrocyclopenta[f]indazol-5-yl]methyl}-N-[2-(2-hydroxyphenyl)ethyl]benzenesulfonamide] | 73.5% | 676 nM | 7.7% | 94.9 nM | 81.2% | > 5%
C[C@]12Cc3cnn(-c4ccc(F)cc4)c3C=C1CC[C@@H]2CN(CCO)S(=O)(=O)c1ccccc1C(N)=O [Example 117, 2-{[{[(4αR,5S)-1-(4-fluorophenyl)-4α-methyl-1,4,4α,5,6,7-hexahydrocyclopenta[f]indazol-5-yl]methyl}(2-hydroxyethyl)amino]sulfonyl}benzamide] | 45.1% | 449 nM | 28.6% | 533 nM | 73.7% | > 5%
COCCN(C[C@H]1CCC2=Cc3c(cnn3-c3ccc(F)cc3)C[C@@]21C)S(=O)(=O)CCN1C(=O)c2ccccc2C1=O [Example 118, 2-(1,3-dioxo-1,3-dihydro-2H-isoindol-2-yl)-N-{[(4αR,5S)-1-(4-fluorophenyl)-4α-methyl-1,4,4α,5,6,7-hexahydrocyclopenta[f]indazol-5-yl]methyl}-N-(2-methoxyethyl)ethanesulfonamide] | 8.7% | 853 nM | 25.4% | 1050 nM | 34.1% | > 5%
COc1ccccc1CCN(C[C@H]1CCC2=Cc3c(cnn3-c3ccc(F)cc3)C[C@@]21C)S(=O)(=O)Cc1cccc(C(F)(F)F)c1 [Example 119, N-{[(4αR,5S)-1-(4-fluorophenyl)-4α-methyl-1,4,4α,5,6,7-hexahydrocyclopenta[f]indazol-5-yl]methyl}-N-[2-(2-methoxyphenyl)ethyl]-1-[3-(trifluoromethyl)phenyl]methanesulfonamide] | 6.6% | 202 nM | 9.3% | 605 nM | 15.9% | > 5%
COc1ccccc1CCN(C[C@H]1CCC2=Cc3c(cnn3-c3ccc(F)cc3)C[C@@]21C)S(=O)(=O)CC(F)(F)F [Example 120, 2,2,2-trifluoro-N-{[(4αR,5S)-1-(4-fluorophenyl)-4α-methyl-1,4,4α,5,6,7-hexahydrocyclopenta[f]indazol-5-yl]methyl}-N-[2-(2-methoxyphenyl)ethyl]ethanesulfonamide] | 73.2% | 110 nM | 18.2% | 77.8 nM | 91.5% | > 5%
C[C@]12Cc3cnn(-c4ccc(F)cc4)c3C=C1CC[C@@H]2CN(CCc1ccccc1F)S(=O)(=O)CCN1C(=O)c2ccccc2C1=O [Example 121, 2-(1,3-dioxo-1,3-dihydro-2H-isoindol-2-yl)-N-[2-(2-fluorophenyl)ethyl]-N-{[(4αR,5S)-1-(4-fluorophenyl)-4α-methyl-1,4,4α,5,6,7-hexahydrocyclopenta[f]indazol-5-yl]methyl}ethanesulfonamide] | 15.9% | 242 nM | 17.9% | 156 nM | 33.8% | > 5%
C[C@]12Cc3cnn(-c4ccc(F)cc4)c3C=C1CC[C@@H]2CN(CCc1ccccc1O)S(=O)(=O)Cc1cccc(C(F)(F)F)c1 [Example 122, N-{[(4αR,5S)-1-(4-fluorophenyl)-4α-methyl-1,4,4α,5,6,7-hexahydrocyclopenta[f]indazol-5-yl]methyl}-N-[2-(2-hydroxyphenyl)ethyl]-1-[3-(trifluoromethyl)phenyl]methanesulfonamide] | 8.9% | 502 nM | 30.8% | 417 nM | 39.7% | > 5%
